Assays:
[1] = biological target: CREB-binding protein/Histone acetyltransferase p300 (Homo sapiens, UniProt Q09472+Q92793); assay: Inhibition of p300/CBP (unknown origin) using biotinylated synthetic Histone H4 Peptide as substrate pretreated for 30 mins followed by substrate addition measured after 1 hr by radiometric scintillation proximity assay; assay type: protein assay
[2] = Permeability of the compound by PAMPA; assay type: ADME
[3] = AUC in mouse at 10 mg/kg, po; assay type: ADME, organism-based; conditions: in vivo
Mus musculus [4] = assay: Plasma clearance in mouse at 1 mg/kg, iv; assay type: ADME, organism-based; conditions: in vivo
Mus musculus [5] = organism: Mus musculus; assay: Unbound plasma clearance in mouse; assay type: ADME, organism-based; conditions: in vivo
[6] = Protein binding in mouse plasma; assay type: ADME, cell-free
[7] = Unbound intrinsic clearance in mouse microsomes; assay type: ADME, Microsome
[8] = Oral bioavailability in mouse; assay type: ADME, organism-based; conditions: in vivo
[9] = Clearance in mouse microsomes; assay type: ADME, Microsome
[10] = Unbound fraction in human microsomes; assay type: ADME, Microsome

CC(C1CC1)N(Cc1ccccc1)C(=O)CN1C(=O)NC(Cc2c[nH]c3ccccc23)C1=O (stereo not drawn)
IC50 [1]: 5.1 µM

CNC(=O)Nc1ccc2c(c1)CC[C@]21NC(=O)N(CC(=O)N(Cc2ccccc2)[C@@H](C)C2CC2)C1=O
permeability [2]: 0.47 ×10⁻⁶ cm/s

C[C@@H](C1CC1)N(Cc1ccccc1)C(=O)CN1C(=O)NC(c2ccccc2)C1=O (stereo partly drawn)
IC50 [1]: 7.6 µM

CNC(=O)Nc1ccc2c(c1)CC[C@@]21OC(=O)N(CC(=O)N(Cc2ccccc2)[C@@H](C)C2CC2)C1=O
AUC [3]: 2500 ng·h/mL
CL (Mus musculus [4]): 27 mL/min/kg
CL free (Mus musculus [5]): 3100 mL/min/kg
permeability [2]: 2.35 ×10⁻⁶ cm/s
PPB [6]: 99.1%
CL free [7]: 3130 mL/min/kg
bioavailability [8]: 40%
CLint scaled [9]: 1780 mL/min/kg
Fu [10]: 0.48

Cc1ccccc1C1NC(=O)N(CC(=O)N(Cc2ccccc2)[C@@H](C)C2CC2)C1=O (stereo partly drawn)
IC50 [1]: 2.7 µM
